These results are taken from patent US20110224208A1, “NOVEL INHIBITORS OF FLAVIVIRUS REPLICATION” (KATHOLIEKE UNIVERSITEIT LEUVEN, K.U. LEUVEN R&D, priority 2008, published 2011).

Data set [1] in a line: Proliferation of exponentially growing Huh-5-2 cells (MTS method). The conditions noted are these: human, CC50, concentration required to inhibit the proliferation of exponentially growing Huh-5-2 cells by 50%; Table 2. The method, then: Cells were seeded at a density of 7000 cells per well in 96 well View Plate™ (Packard) in medium containing the same components as described above, except for G418. Cells were allowed to adhere and proliferate for 24 hr. At that time, culture medium was removed and serial dilutions of the test compounds were added in culture medium lacking G418. Interferon alfa 2a (500 IU) was included as a positive control. Plates were further incubated at 37° C. and 5% CO2 for 72 hours. Replication of the HCV replicon in Huh-5 cells results in luciferase activity in the cells. Luciferase activity is measured by adding 50 μl of 1×Glo-lysis buffer (Promega) for 15 minutes followed by 50 ul of the Steady-Glo Luciferase assay reagent (Promega). Luciferase activity is measured with a luminometer and the signal in each individual well is expressed as a percentage of the untreated cultures. […] Instead the density of the culture is measured by means of the MTS method (Promega).

Data set [2] deals with HCV replicon I389luc-ubi-neo/NS3-3'/5.1. Briefly: Anti-HCV replicon assay (luciferase activity) in Huh-5-2 cells. Particulars: Hepatitis C virus, Huh-5-2, 72 h, concentration required to inhibit luciferase activity in the replicon system by 50%. Type of data set: cell-based, Hepatitis C virus. The essentials: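 Huh-5-2 cells carrying the luciferase HCV replicon, seeded 24 h, then exposed to serial compound dilutions without G418 for 72 h at 37° C, 5% CO2. Replication read as luciferase luminescence, expressed as percentage of untreated cultures; culture density measured in parallel by MTS.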

Converted amounts (≈) assume the structure as drawn.

In turn, `COCCN1C(=O)c2ccccc2C(C(=O)Nc2cc(C)on2)C1c1cccs1` (stereo not shown) [C126, 2-(2-methoxyethyl)-N-(5-methylisoxazol-3-yl)-1-oxo-3-(thiophen-2-yl)-1,2,3,4-tetrahydroisoquinoline-4-carboxamide] had a CC50 at 72 h in data set [1] of 58.1 µg/mL (≈ 141 µM). Besides, the IC50 in data set [2] was determined as 0.9 µg/mL (≈ 2.19 µM).
`COCCN1C(=O)c2ccccc2C(C(=O)Nc2cccc(NC(C)=O)c2)C1c1cccs1` (stereo not shown) [C108, N-(3-acetamidophenyl)-2-(2-methoxyethyl)-1-oxo-3-(thiophen-2-yl)-1,2,3,4-tetrahydroisoquinoline-4-carboxamide] returned a CC50 at 72 h in data set [1] of 77.3 µg/mL (≈ 167 µM). The same molecule registered an IC50 in data set [2] of 3.71 µg/mL (≈ 8 µM).
With `COc1cccc(NC(=O)C2c3ccccc3C(=O)N(C3CCCCC3)C2c2cccs2)c1` (stereo not shown) [C25, 2-Cyclohexyl-N-(3-methoxyphenyl)-1-oxo-3-(thiophen-2-yl)-1,2,3,4-tetrahydroisoquinoline-4-carboxamide], the midpoint of cytotoxicity in data set [1], the CC50 at 72 h, lay at 5.28 µg/mL (≈ 11.5 µM). The molecule further yielded a half-maximal inhibitory concentration (IC50) in data set [2] of 0.98 µg/mL (≈ 2.13 µM).
On the same counts, the results for `COCCN1C(=O)c2ccccc2C(C(=O)Nc2cc(C(=O)OC)n(C)c2)C1c1cccs1` (stereo not shown) [C209, methyl 4-(2-(2-methoxyethyl)-1-oxo-3-(thiophen-2-yl)-1,2,3,4-tetrahydroisoquinoline-4-carboxamido)-1-methyl-1H-pyrrole-2-carboxylate] are 57.8 µg/mL (≈ 124 µM) and 0.11 µg/mL (≈ 0.235 µM).
On the same counts, the results for `COCCN1C(=O)c2ccccc2C(C(=O)Nc2ccc3c(ccn3C)c2)C1c1cccs1` (stereo not shown) [C123, 2-(2-methoxyethyl)-N-(1-methyl-1H-indol-5-yl)-1-oxo-3-(thiophen-2-yl)-1,2,3,4-tetrahydroisoquinoline-4-carboxamide] are 87.9 µg/mL (≈ 191 µM) and 0.25 µg/mL (≈ 0.544 µM).
The molecule `COCCN1C(=O)c2ccccc2C(C(=O)Nc2ccc3c(c2)OCCO3)C1c1cccs1` (stereo not shown) [C117, N-(2,3-dihydrobenzo[b][1,4]dioxin-6-yl)-2-(2-methoxyethyl)-1-oxo-3-(thiophen-2-yl)-1,2,3,4-tetrahydroisoquinoline-4-carboxamide] yielded a CC50 at 72 h in data set [1] of 81.9 µg/mL (≈ 176 µM). The IC50 in data set [2] was 0.36 µg/mL (≈ 0.775 µM).
On the same counts, the results for `COCCN1C(=O)c2ccccc2C(C(=O)Nc2ccc(Cl)c(OC)c2)C1c1cccs1` (stereo not shown) [C111, N-(4-chloro-3-methoxyphenyl)-2-(2-methoxyethyl)-1-oxo-3-(thiophen-2-yl)-1,2,3,4-tetrahydroisoquinoline-4-carboxamide] are 86.7 µg/mL (≈ 184 µM) and 0.17 µg/mL (≈ 0.361 µM).
On the same counts, the results for `COCCN1C(=O)c2ccccc2C(C(=O)Nc2cccc(OC)c2)C1c1ccc(Cl)s1` (stereo not shown) [C135, 3-(5-chlorothiophen-2-yl)-2-(2-methoxyethyl)-N-(3-methoxyphenyl)-1-oxo-1,2,3,4-tetrahydroisoquinoline-4-carboxamide] are 56.7 µg/mL (≈ 120 µM) and 0.52 µg/mL (≈ 1.1 µM).
On the same counts, the results for `COCCN1C(=O)c2ccccc2C(C(=O)Nc2ccc(C)cc2)C1c1cccs1` (stereo not shown) [C86, 2-(2-methoxyethyl)-1-oxo-3-(thiophen-2-yl)-N-p-tolyl-1,2,3,4-tetrahydroisoquinoline-4-carboxamide] are 75 µg/mL (≈ 178 µM) and 0.25 µg/mL (≈ 0.594 µM).
On to `COCCN1C(=O)c2ccccc2C(C(=O)Nc2cc(OC)cc(OC)c2)C1c1cccs1` (stereo not shown) [C130, N-(3,5-dimethoxyphenyl)-2-(2-methoxyethyl)-1-oxo-3-(thiophen-2-yl)-1,2,3,4-tetrahydroisoquinoline-4-carboxamide], for which half-maximal cytotoxicity in data set [1] (CC50 at 72 h) was put at 91.8 µg/mL (≈ 197 µM). For the same molecule, inhibition in data set [2] was half-maximal at 0.8 µg/mL (≈ 1.71 µM) (IC50).
On the same counts, the results for `COCCN1C(=O)c2ccccc2C(C(=O)Nc2cc(-c3ccco3)[nH]n2)C1c1cccs1` (stereo not shown) [C183, N-(5-(furan-2-yl)-1H-pyrazol-3-yl)-2-(2-methoxyethyl)-1-oxo-3-(thiophen-2-yl)-1,2,3,4-tetrahydroisoquinoline-4-carboxamide] are 77 µg/mL (≈ 166 µM) and 50.2 µg/mL (≈ 109 µM).
The like results for `COCCN1C(=O)c2ccccc2C(C(=O)Nc2ccc(C(=O)NCc3ccccc3)cc2)C1c1cccs1` (stereo not shown) [C137, N-(4-(benzylcarbamoyl)phenyl)-2-(2-methoxyethyl)-1-oxo-3-(thiophen-2-yl)-1,2,3,4-tetrahydroisoquinoline-4-carboxamide] were, in that order, 81.1 µg/mL (≈ 150 µM) and 0.032 µg/mL (≈ 0.0593 µM).
As for `COCCN1C(=O)c2ccccc2C(C(=O)n2c(=O)oc3ccc(N)cc32)C1c1cccs1` (stereo not shown) [C207, 5-amino-3-(−2-(2-methoxyethyl)-1-oxo-3-(thiophen-2-yl)-1,2,3,4-tetrahydroisoquinoline-4-carbonyl)benzo[d]oxazol-2(3H)-one], the cytotoxic concentration (CC50) at 72 h in data set [1] was determined as 72.3 µg/mL (≈ 156 µM). In data set [2], it took 27.4 µg/mL (≈ 59.2 µM) to reach half-maximal inhibition (IC50).
In the case of `COCCN1C(=O)c2ccccc2C(C(=O)Nc2cccc(C(F)(F)F)c2)C1c1cccs1` (stereo not shown) [C110, 2-(2-methoxyethyl)-1-oxo-3-(thiophen-2-yl)-N-(3-(trifluoromethyl)phenyl)-1,2,3,4-tetrahydroisoquinoline-4 carboxamide], in data set [1], the half-maximal cytotoxic concentration (CC50) at 72 h worked out at 79.3 µg/mL (≈ 167 µM). In addition, the half-inhibitory concentration (IC50) in data set [2] amounted to 1.45 µg/mL (≈ 3.06 µM).
In data set [1], `COCCN1C(=O)c2ccccc2C(C(=O)Nc2ccc(-c3nncn3C)cc2)C1c1cccs1` (stereo not shown) [C214, 2-(2-methoxyethyl)-N-(4-(4-methyl-4H-1,2,4-triazol-3-yl)phenyl)-1-oxo-3-(thiophen-2-yl)-1,2,3,4-tetrahydroisoquinoline-4-carboxamide] yielded a cytotoxic concentration (CC50) at 72 h of 85.3 µg/mL (≈ 175 µM). Also, the IC50 in data set [2] stood at 5.29 µg/mL (≈ 10.8 µM).
The molecule `COCCN1C(=O)c2ccccc2C(C(=O)Nc2cccc(-n3cccn3)c2)C1c1cccs1` (stereo not shown) [C172, N-(3-(1H-pyrazol-1-yl)phenyl)-2-(2-methoxyethyl)-1-oxo-3-(thiophen-2-yl)-1,2,3,4-tetrahydroisoquinoline-4-carboxamide] yielded a CC50 at 72 h in data set [1] of 14.5 µg/mL (≈ 30.6 µM). In data set [2], this molecule displayed an IC50 of 0.09 µg/mL (≈ 0.19 µM).
Regarding `COCCN1C(=O)c2ccccc2C(C(=O)Nc2cccc(Cc3ccccc3)c2)C1c1cccs1` (stereo not shown) [C89, N-(3-benzylphenyl)-2-(2-methoxyethyl)-1-oxo-3-(thiophen-2-yl)-1,2,3,4-tetrahydroisoquinoline-4-carboxamide], half-maximal cytotoxicity in data set [1] (CC50 at 72 h) was put at 0.62 µg/mL (≈ 1.25 µM). Further, the IC50 in data set [2] was 0.11 µg/mL (≈ 0.221 µM).
In the case of `COCCN1C(=O)c2ccccc2C(C(=O)Nc2nc3ccc(Cl)cc3s2)C1c1cccs1` (stereo not shown) [C202, N-(6-chlorobenzo[d]thiazol-2-yl)-2-(2-methoxyethyl)-1-oxo-3-(thiophen-2-yl)-1,2,3,4-tetrahydroisoquinoline-4-carboxamide], the cytotoxic concentration (CC50) at 72 h in data set [1] turned out to be 7.89 µg/mL (≈ 15.8 µM). The molecule also came in with an IC50 in data set [2] of 0.17 µg/mL (≈ 0.341 µM).
On the same counts, the results for `COCCCN1C(=O)c2ccccc2C(C(=O)Nc2cccc(OC)c2)C1c1cccs1` (stereo not shown) [C13, N-(3-methoxyphenyl)-2-(3-methoxypropyl)-1-oxo-3-(thiophen-2-yl)-1,2,3,4-tetrahydroisoquinoline-4-carboxamide] are 33.3 µg/mL (≈ 73.9 µM) and 2.11 µg/mL (≈ 4.68 µM).
`COCCN1C(=O)c2ccccc2C(C(=O)Nc2ccn(C)n2)C1c1cccs1` (stereo not shown) [C180, 2-(2-methoxyethyl)-N-(1-methyl-1H-pyrazol-3-yl)-1-oxo-3-(thiophen-2-yl)-1,2,3,4-tetrahydroisoquinoline-4-carboxamide] had a cytotoxic concentration (CC50) at 72 h in data set [1] of 80.8 µg/mL (≈ 197 µM). The IC50 in data set [2] worked out at 34.8 µg/mL (≈ 84.8 µM).
For the molecule `COCCN1C(=O)c2c(ccc(OC)c2F)C(C(=O)Nc2ccc(-n3cccc3)cc2)C1c1cccs1` (stereo not shown) [C150, N-(4-(1H-pyrrol-1-yl)phenyl)-8-fluoro-7-methoxy-2-(2-methoxyethyl)-1-oxo-3-(thiophen-2-yl)-1,2,3,4-tetrahydroisoquinoline-4-carboxamide], the CC50 at 72 h in data set [1] is more than 125 µg/mL. The molecule also came in with an IC50 in data set [2] of 0.08 µg/mL (≈ 0.154 µM).
The like results for `COCCN1C(=O)c2ccccc2C(C(=O)Nc2cccc(OC)c2)C1c1ccncc1` (stereo not shown) [C30, 2-(2-Methoxyethyl)-N-(3-methoxyphenyl)-1-oxo-3-(pyridin-4-yl)-1,2,3,4-tetrahydroisoquinoline-4-carboxamide] were, in that order, 70.3 µg/mL (≈ 163 µM) and 36.7 µg/mL (≈ 85 µM).
On the same counts, the results for `COCCN1C(=O)c2ccccc2C(C(=O)Nc2onc(C)c2C#N)C1c1cccs1` (stereo not shown) [C155, N-(4-cyano-3-methylisoxazol-5-yl)-2-(2-methoxyethyl)-1-oxo-3-(thiophen-2-yl)-1,2,3,4-tetrahydroisoquinoline-4-carboxamide] are 76.4 µg/mL (≈ 175 µM) and 5.65 µg/mL (≈ 12.9 µM).
As to `COCCN1C(=O)c2ccccc2C(C(=O)Nc2cccc(N3CCCC3)c2)C1c1cccs1` (stereo not shown) [C122, 2-(2-methoxyethyl)-1-oxo-N-(3-(pyrrolidin-1-yl)phenyl)-3-(thiophen-2-yl)-1,2,3,4-tetrahydroisoquinoline-4-carboxamide], the CC50 at 72 h in data set [1] was found to be 81.3 µg/mL (≈ 171 µM). Also, in data set [2], inhibition was half-maximal at 0.37 µg/mL (≈ 0.778 µM) (IC50).
In data set [1], `COCCN1C(=O)c2cccc(OC)c2C(C(=O)Nc2cccc(OC)c2)C1c1cccs1` (stereo not shown) [C148, 5-methoxy-2-(2-methoxyethyl)-N-(3-methoxyphenyl)-1-oxo-3-(thiophen-2-yl)-1,2,3,4-tetrahydroisoquinoline-4-carboxamide] displayed a CC50 at 72 h of 52.1 µg/mL (≈ 112 µM). The midpoint of inhibition in data set [2], the IC50, lay at 24.6 µg/mL (≈ 52.6 µM).
On to `COCCN1C(=O)c2ccccc2C(C(=O)Nc2ccc(CN3CCCCC3)cc2)C1c1cccs1` (stereo not shown) [C216, 2-(2-methoxyethyl)-1-oxo-N-(4-(piperidin-1-ylmethyl)phenyl)-3-(thiophen-2-yl)-1,2,3,4-tetrahydroisoquinoline-4-carboxamide], for which the CC50 at 72 h in data set [1] turned out to be 10.9 µg/mL (≈ 21.7 µM). In data set [2], this molecule gave an IC50 of 2.57 µg/mL (≈ 5.1 µM).
